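1) Cells in 96-well plates. 2) Compound, 48 h, 5 concentrations. 3) Linear interpolation between surrounding doses. 4) Unreached endpoint = highest concentration. GI50 is the concentration that inhibits growth by half. TGI denotes the concentration required for complete inhibition of growth.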
Assays:
Experiment in all cases: inhibition of tumour cell growth, NCI panel, 48 h
[1] = test system: 786-0 renal
[2] = test system: A498 renal
[3] = test system: A549 NSCLC
[4] = test system: ACHN renal
[5] = test system: BT-549 breast
[6] = test system: CAKI-1 renal
[7] = test system: CCRF-CEM leukemia
[8] = test system: COLO 205 colon
[9] = test system: DU-145 prostate
[10] = test system: EKVX NSCLC
[11] = test system: HCC-2998 colon
[12] = test system: HCT-116 colon
[13] = test system: HCT-15 colon
[14] = test system: HL-60(TB) leukemia
[15] = test system: HOP-62 NSCLC
[16] = test system: HOP-92 NSCLC
[17] = test system: HS 578T breast
[18] = test system: HT29 colon
[19] = test system: IGROV1 ovarian
[20] = test system: K-562 leukemia
[21] = test system: KM12 colon
[22] = test system: LOX IMVI melanoma
[23] = test system: M14 melanoma
[24] = test system: MALME-3M melanoma
[25] = test system: MCF7 breast
[26] = test system: MDA-MB-231 breast
[27] = test system: MDA-MB-435
[28] = test system: MOLT-4 leukemia
[29] = test system: NCI-H226 lung
[30] = test system: NCI-H23 lung
[31] = test system: NCI-H460 lung
[32] = test system: NCI-H522 lung
[33] = test system: NCI/ADR-RES ovarian
[34] = test system: OVCAR-3 ovarian
[35] = test system: OVCAR-4 ovarian
[36] = test system: OVCAR-5 ovarian
[37] = test system: OVCAR-8 ovarian
[38] = test system: PC-3 prostate
[39] = test system: RXF 393 renal
[40] = test system: SF-268 CNS
[41] = test system: SF-295 CNS
[42] = test system: SF-539 CNS
[43] = test system: SK-MEL-2 melanoma
[44] = test system: SK-MEL-28 melanoma
[45] = test system: SK-MEL-5 melanoma
[46] = test system: SK-OV-3 ovarian
[47] = test system: SN12C renal
[48] = test system: SNB-19 CNS
[49] = test system: SNB-75 CNS
[50] = test system: SW-620 colon
[51] = test system: T-47D breast
[52] = test system: TK-10 renal
[53] = test system: U251 CNS
[54] = test system: UACC-257 melanoma
[55] = test system: UACC-62 melanoma
[56] = test system: UO-31 renal
[57] = test system: RPMI-8226 leukemia
[58] = test system: SR leukemia

With `CSc1ccc(C2=C(c3ccccc3)C(=O)OC2)cc1` the GI50 [1] was 1.21 µM, the TGI [1] was 19.7 µM and the GI50 [2] was 3.13 µM. It also gave a TGI [2] of 13.9 µM, a GI50 [3] of 0.677 µM and a TGI [3] greater than 100 µM. It also gave a GI50 [4] of 0.517 µM, a TGI [4] of 33.4 µM and a GI50 [5] of 16.2 µM. It also gave a TGI [5] greater than 100 µM, a GI50 [6] of 0.409 µM and a TGI [6] of 10.1 µM. For the same compound, the GI50 [7] was 0.508 µM, the TGI [7] was 2.85 µM and the GI50 [8] was 0.763 µM. For the same compound, the TGI [8] was greater than 100 µM, the GI50 [9] was 4.49 µM and the TGI [9] was greater than 100 µM. It also gave a GI50 [10] of 5.76 µM, a TGI [10] greater than 100 µM and a GI50 [11] of 0.309 µM. For the same compound, the TGI [11] was 18.9 µM, the GI50 [12] was 0.637 µM and the TGI [12] was 61.7 µM. The GI50 [13] was 0.202 µM, the TGI [13] was 3.46 µM and the GI50 [14] was 0.35 µM. It also gave a TGI [14] of 2.07 µM, a GI50 [15] of 1.96 µM and a TGI [15] greater than 70 µM. The GI50 [16] was 2.13 µM, the TGI [16] was 44.7 µM and the GI50 [17] was 0.219 µM. It also gave a TGI [17] of 1.22 µM, a GI50 [18] of 0.239 µM and a TGI [18] greater than 100 µM. It also gave a GI50 [19] of 2.18 µM, a TGI [19] greater than 63.9 µM and a GI50 [20] of 0.101 µM. For the same compound, the TGI [20] was greater than 100 µM, the GI50 [21] was 0.356 µM and the TGI [21] was greater than 77 µM. It also gave a GI50 [22] of 0.385 µM, a TGI [22] of 38.7 µM and a GI50 [23] of 0.483 µM. It also gave a TGI [23] greater than 46.1 µM, a GI50 [24] of 3.29 µM and a TGI [24] of 64.1 µM. The GI50 [25] was 0.81 µM, the GI50 [26] was 0.425 µM and the TGI [26] was 20.9 µM. It also gave a GI50 [27] of 0.0923 µM, a TGI [27] of 0.364 µM and a GI50 [28] of 0.174 µM. It also gave a TGI [28] greater than 100 µM, a GI50 [29] of 4.3 µM and a TGI [29] of 53.3 µM. The GI50 [30] was 3.78 µM, the TGI [30] was greater than 41.1 µM and the GI50 [31] was 1.29 µM. The TGI [31] was greater than 34.8 µM, the GI50 [32] was 0.619 µM and the TGI [32] was 2.45 µM. The GI50 [33] was 0.35 µM, the TGI [33] was greater than 34.9 µM and the GI50 [34] was 0.188 µM. For the same compound, the TGI [34] was 0.568 µM, the GI50 [35] was 21.2 µM and the TGI [35] was greater than 100 µM. The GI50 [36] was 5.18 µM, the TGI [36] was greater than 100 µM and the GI50 [37] was 0.639 µM. For the same compound, the TGI [37] was greater than 100 µM, the GI50 [38] was 0.884 µM and the TGI [38] was 21.1 µM. The GI50 [39] was 1.87 µM, the GI50 [40] was 3.02 µM and the TGI [40] was greater than 64.7 µM. For the same compound, the GI50 [41] was 0.597 µM, the TGI [41] was 1.98 µM and the GI50 [42] was 1.49 µM. The TGI [42] was 12.3 µM, the GI50 [43] was 1.64 µM and the TGI [43] was greater than 100 µM. The GI50 [44] was 6.69 µM, the TGI [44] was greater than 100 µM and the GI50 [45] was 0.732 µM. The TGI [45] was 3.56 µM, the GI50 [46] was 1.51 µM and the TGI [46] was greater than 100 µM. The GI50 [47] was 7.68 µM, the TGI [47] was greater than 100 µM and the GI50 [48] was 0.804 µM. The TGI [48] was greater than 100 µM, the GI50 [49] was 5.67 µM and the TGI [49] was greater than 100 µM. The GI50 [50] was 1 µM, the TGI [50] was greater than 20.1 µM and the GI50 [51] was 1.22 µM. It also gave a TGI [51] greater than 100 µM, a GI50 [52] of 1.49 µM and a TGI [52] of 18.4 µM. For the same compound, the GI50 [53] was 0.329 µM, the TGI [53] was 7.05 µM and the TGI [54] was greater than 100 µM. For the same compound, the GI50 [55] was 0.715 µM, the TGI [55] was 53.8 µM and the GI50 [56] was 2.66 µM. It also gave a TGI [56] greater than 80.3 µM.
With `COc1cc2c(c(OC)c1OC)-c1ccc(NN(C(=O)c3ccccc3)C(=O)c3ccccc3)c(=O)cc1[C@@H](NC(C)=O)CC2` (tested in a mixture with another compound) the GI50 [1] was 3.31 µM, the TGI [1] was 13.4 µM and the GI50 [2] was 3.78 µM. The TGI [2] was 52 µM, the GI50 [3] was 4.02 µM and the TGI [3] was greater than 100 µM. The GI50 [4] was 4.27 µM, the TGI [4] was 24.8 µM and the GI50 [5] was 2.63 µM. The TGI [5] was 8.15 µM, the GI50 [6] was 4.62 µM and the TGI [6] was 47.1 µM. It also gave a GI50 [7] of 3.57 µM, a TGI [7] greater than 100 µM and a GI50 [8] of 3.02 µM. The TGI [8] was 12.2 µM, the GI50 [9] was 3.3 µM and the TGI [9] was greater than 100 µM. It also gave a GI50 [10] of 8.09 µM, a TGI [10] greater than 100 µM and a GI50 [11] of 3.23 µM. The TGI [11] was 12.7 µM, the GI50 [12] was 2.95 µM and the TGI [12] was 8.88 µM. The GI50 [13] was 3.64 µM, the TGI [13] was 14.9 µM and the GI50 [14] was 2.1 µM. It also gave a TGI [14] of 14.7 µM, a GI50 [15] of 4.54 µM and a TGI [15] of 30.3 µM. It also gave a GI50 [16] of 3.84 µM, a TGI [16] greater than 100 µM and a GI50 [17] of 1.9 µM. The TGI [17] was 6.3 µM, the GI50 [18] was 2.93 µM and the TGI [18] was 11.1 µM. For the same compound, the GI50 [19] was 4.6 µM, the TGI [19] was 63 µM and the GI50 [20] was 4.03 µM. It also gave a TGI [20] greater than 100 µM, a GI50 [21] of 3.63 µM and a TGI [21] of 25.7 µM. It also gave a GI50 [22] of 4.24 µM, a TGI [22] of 16.5 µM and a GI50 [23] of 2.36 µM. The TGI [23] was 6.45 µM, the GI50 [24] was 17.6 µM and the TGI [24] was greater than 100 µM. It also gave a GI50 [25] of 3.84 µM, a TGI [25] greater than 100 µM and a GI50 [26] of 3.39 µM. It also gave a TGI [26] greater than 100 µM, a GI50 [28] of 4.08 µM and a TGI [28] greater than 100 µM. The GI50 [29] was 10.6 µM, the TGI [29] was 37.4 µM and the GI50 [30] was 3.91 µM. It also gave a TGI [30] of 37.6 µM, a GI50 [31] of 2.98 µM and a TGI [31] of 11.2 µM. It also gave a GI50 [32] of 2.01 µM, a TGI [32] of 6.18 µM and a GI50 [33] of 4.37 µM. It also gave a TGI [33] greater than 100 µM, a GI50 [34] of 2.8 µM and a TGI [34] of 13.4 µM. The GI50 [35] was 7.06 µM, the TGI [35] was greater than 100 µM and the GI50 [36] was 3.95 µM. For the same compound, the TGI [36] was greater than 100 µM, the GI50 [37] was 3.86 µM and the TGI [37] was 42.7 µM. For the same compound, the GI50 [38] was 4.69 µM, the TGI [38] was greater than 100 µM and the GI50 [57] was 4.72 µM. For the same compound, the TGI [57] was 82.5 µM, the GI50 [39] was 2.24 µM and the TGI [39] was 8 µM. The GI50 [40] was 4.61 µM, the TGI [40] was greater than 100 µM and the GI50 [41] was 3.81 µM. For the same compound, the TGI [41] was greater than 100 µM, the GI50 [42] was 3.08 µM and the TGI [42] was 10.5 µM. The GI50 [43] was 3.42 µM, the TGI [43] was 16.6 µM and the GI50 [44] was 8.76 µM. It also gave a TGI [44] of 29 µM, a GI50 [45] of 2.49 µM and a TGI [45] of 11 µM. For the same compound, the GI50 [46] was 2.65 µM, the TGI [46] was 8.77 µM and the GI50 [47] was 5.38 µM. It also gave a TGI [47] greater than 100 µM, a GI50 [48] of 6.7 µM and a TGI [48] greater than 100 µM. For the same compound, the GI50 [49] was 5.08 µM, the TGI [49] was greater than 100 µM and the GI50 [58] was 3.76 µM. The TGI [58] was greater than 100 µM, the GI50 [50] was 3.73 µM and the TGI [50] was 15.3 µM. It also gave a GI50 [51] of 4.71 µM, a TGI [51] of 42 µM and a GI50 [52] of 4.04 µM. For the same compound, the TGI [52] was 42.5 µM, the GI50 [53] was 3.77 µM and the TGI [53] was 21.3 µM. For the same compound, the GI50 [54] was 14.4 µM, the TGI [54] was 62.9 µM and the GI50 [55] was 4.18 µM. It also gave a TGI [55] of 42.1 µM, a GI50 [56] of 4.59 µM and a TGI [56] of 41.6 µM.
